From the NIST ThermoML archive (doi:10.1021/je060411g)

Assay: molar heat capacity at constant pressure
Conditions: 101.33 kPa

CCC(C)CO (stereo not given) [2-methyl-1-butanol]
Conditions | molar heat capacity at constant pressure [J/K/mol]
84.68 K, Glass | 66.37
85.32 K, Glass | 66.9
86.62 K, Glass | 68.05
88.13 K, Glass | 68.63
88.55 K, Glass | 69.49
89.15 K, Glass | 69.5
90.45 K, Glass | 69.12
90.85 K, Glass | 70.72
92.36 K, Glass | 71.63
92.5 K, Glass | 69.54
92.77 K, Glass | 72.07
93.04 K, Glass | 72.48
94.27 K, Glass | 72.89
94.29 K, Glass | 72.88
94.69 K, Glass | 73.39
96.19 K, Glass | 74.2
96.22 K, Glass | 74.42
96.61 K, Glass | 74.74
98.11 K, Glass | 75.66
98.15 K, Glass | 75.92
98.53 K, Glass | 76.35
100.03 K, Glass | 77.35
100.07 K, Glass | 77.68
100.45 K, Glass | 77.93
101.96 K, Glass | 78.33
101.99 K, Glass | 78.7
102.38 K, Glass | 78.97
103.89 K, Glass | 79.44
103.92 K, Glass | 79.95
104.32 K, Glass | 80.34
105.82 K, Glass | 80.96
105.85 K, Glass | 81.54
106.25 K, Glass | 82
107.75 K, Glass | 82.7
107.79 K, Glass | 83.22
108.19 K, Glass | 83.82
109.68 K, Glass | 84.31
109.72 K, Glass | 84.61
110.13 K, Glass | 85.55
111.62 K, Glass | 86.17
111.66 K, Glass | 86.13
112.07 K, Glass | 87.55
113.54 K, Glass | 88.63
113.6 K, Glass | 88.13
114.02 K, Glass | 89.94
115.46 K, Glass | 92.53
115.54 K, Glass | 91.47
115.95 K, Glass | 93.24
117.36 K, Glass | 100.69
117.46 K, Glass | 98.77
117.87 K, Glass | 98.66
124.07 K, Liquid | 145.49
124.32 K, Liquid | 145.64
124.62 K, Liquid | 145.89
125.99 K, Liquid | 145.72
126.25 K, Liquid | 145.78
126.56 K, Liquid | 145.84
127.96 K, Liquid | 145.9
128.21 K, Liquid | 145.94
128.53 K, Liquid | 145.95
129.93 K, Liquid | 146.02
130.19 K, Liquid | 146.06
130.5 K, Liquid | 146.03
131.9 K, Liquid | 146.08
132.16 K, Liquid | 146.14
132.47 K, Liquid | 146.14
133.88 K, Liquid | 146.23
134.14 K, Liquid | 146.25
134.45 K, Liquid | 146.21
135.85 K, Liquid | 146.27
136.11 K, Liquid | 146.35
136.42 K, Liquid | 146.35
137.83 K, Liquid | 146.45
138.09 K, Liquid | 146.51
138.4 K, Liquid | 146.51
139.8 K, Liquid | 146.64
140.06 K, Liquid | 146.68
140.37 K, Liquid | 146.62
141.77 K, Liquid | 146.82
142.04 K, Liquid | 146.87
142.35 K, Liquid | 146.83
143.75 K, Liquid | 146.95
144.02 K, Liquid | 146.99
144.32 K, Liquid | 146.98
145.73 K, Liquid | 147.13
145.99 K, Liquid | 147.22
146.3 K, Liquid | 147.23
147.7 K, Liquid | 147.38
147.97 K, Liquid | 147.38
148.27 K, Liquid | 147.42
149.68 K, Liquid | 147.55
149.94 K, Liquid | 147.65
150.25 K, Liquid | 147.61
151.45 K, Liquid | 147.59
151.8 K, Liquid | 147.34
151.92 K, Liquid | 147.82
152.97 K, Liquid | 147.67
153.9 K, Liquid | 148.01
154.95 K, Liquid | 148.09
155.88 K, Liquid | 148.33
156.92 K, Liquid | 148.38
157.86 K, Liquid | 148.55
158.9 K, Liquid | 148.61
159.84 K, Liquid | 148.75
160.88 K, Liquid | 148.86
161.82 K, Liquid | 149.02
162.85 K, Liquid | 149.11
163.8 K, Liquid | 149.23
164.83 K, Liquid | 149.31
165.78 K, Liquid | 149.53
166.81 K, Liquid | 149.67
167.76 K, Liquid | 149.85
168.79 K, Liquid | 149.95
169.74 K, Liquid | 150.13
170.77 K, Liquid | 150.21
171.72 K, Liquid | 150.38
172.75 K, Liquid | 150.45
173.69 K, Liquid | 150.67
174.73 K, Liquid | 150.8
175.67 K, Liquid | 150.96
176.7 K, Liquid | 151.12
177.65 K, Liquid | 151.36
178.68 K, Liquid | 151.42
179.63 K, Liquid | 151.66
180.65 K, Liquid | 151.78
181.61 K, Liquid | 151.91
182.63 K, Liquid | 152.05
183.59 K, Liquid | 152.19
184.61 K, Liquid | 152.36
185.56 K, Liquid | 152.59
186.59 K, Liquid | 152.73
187.54 K, Liquid | 152.92
188.56 K, Liquid | 153.02
189.52 K, Liquid | 153.24
190.54 K, Liquid | 153.38
191.5 K, Liquid | 153.55
192.51 K, Liquid | 153.71
193.48 K, Liquid | 153.87
194.49 K, Liquid | 154.12
195.45 K, Liquid | 154.28
196.47 K, Liquid | 154.44
197.43 K, Liquid | 154.67
198.44 K, Liquid | 154.78
199.4 K, Liquid | 155
200.41 K, Liquid | 155.18
201.38 K, Liquid | 155.44
202.39 K, Liquid | 155.73
203.35 K, Liquid | 155.9
204.36 K, Liquid | 156.25
205.33 K, Liquid | 156.37
206.33 K, Liquid | 156.66
207.3 K, Liquid | 156.95
208.31 K, Liquid | 157.5
209.28 K, Liquid | 157.69
210.28 K, Liquid | 158.2
211.25 K, Liquid | 158.49
212.25 K, Liquid | 158.88
213.22 K, Liquid | 159.25
214.23 K, Liquid | 159.75
215.2 K, Liquid | 160.09
216.21 K, Liquid | 160.71
217.17 K, Liquid | 160.99
218.18 K, Liquid | 161.49
219.15 K, Liquid | 161.82
220.15 K, Liquid | 162.39
221.13 K, Liquid | 162.7
222.13 K, Liquid | 163.26
223.11 K, Liquid | 163.61
224.1 K, Liquid | 164.01
225.09 K, Liquid | 164.48
226.08 K, Liquid | 164.73
227.07 K, Liquid | 165.18
228.06 K, Liquid | 165.39
229.05 K, Liquid | 165.83
230.04 K, Liquid | 166.09
231.03 K, Liquid | 166.52
232.02 K, Liquid | 166.86
233.01 K, Liquid | 167.29
233.99 K, Liquid | 167.66
234.99 K, Liquid | 168.13
235.97 K, Liquid | 168.53
236.96 K, Liquid | 169
237.94 K, Liquid | 169.41
238.94 K, Liquid | 169.88
239.92 K, Liquid | 170.34
240.92 K, Liquid | 170.8
241.89 K, Liquid | 171.24
242.89 K, Liquid | 171.69
243.86 K, Liquid | 172.18
244.85 K, Liquid | 172.64
245.82 K, Liquid | 173.22
246.81 K, Liquid | 173.63
247.77 K, Liquid | 174.23
248.76 K, Liquid | 174.73
249.72 K, Liquid | 175.28
250.7 K, Liquid | 175.88
251.66 K, Liquid | 176.43
252.64 K, Liquid | 177.14
253.59 K, Liquid | 177.16
254.57 K, Liquid | 177.34
255.52 K, Liquid | 177.97
256.5 K, Liquid | 178.62
257.44 K, Liquid | 179.24
258.43 K, Liquid | 179.85
259.36 K, Liquid | 180.45
260.34 K, Liquid | 181.06
261.27 K, Liquid | 181.7
262.25 K, Liquid | 182.25
263.18 K, Liquid | 182.89
264.15 K, Liquid | 183.6
265.08 K, Liquid | 184.25
266.04 K, Liquid | 184.88
266.97 K, Liquid | 185.71
267.93 K, Liquid | 186.53
268.85 K, Liquid | 187.04
269.81 K, Liquid | 187.76
270.72 K, Liquid | 188.25
271.68 K, Liquid | 189.05
272.59 K, Liquid | 189.75
273.55 K, Liquid | 190.39
274.46 K, Liquid | 191.2
275.41 K, Liquid | 191.82
276.31 K, Liquid | 192.56
277.26 K, Liquid | 193.3
278.16 K, Liquid | 193.91
279.11 K, Liquid | 194.8
280 K, Liquid | 195.48
280.94 K, Liquid | 196.42
281.83 K, Liquid | 197.02
282.77 K, Liquid | 197.86
283.66 K, Liquid | 198.58
284.6 K, Liquid | 199.41
285.47 K, Liquid | 200.28
286.41 K, Liquid | 201.04
287.29 K, Liquid | 201.86
288.22 K, Liquid | 202.76
289.09 K, Liquid | 203.46
290.02 K, Liquid | 204.47
290.89 K, Liquid | 205.13
291.81 K, Liquid | 206.07
292.67 K, Liquid | 206.55
293.6 K, Liquid | 207.65
294.46 K, Liquid | 208.23
295.38 K, Liquid | 209.45
296.23 K, Liquid | 210.26
297.15 K, Liquid | 211.14
298 K, Liquid | 211.98
298.92 K, Liquid | 212.94
299.76 K, Liquid | 213.73
300.68 K, Liquid | 214.69
